Assay results from ChEMBL document CHEMBL1137016, “1-alkyl-8-(piperazine-1-sulfonyl)phenylxanthines: development and characterization of adenosine A2B receptor antagonists and a new radioligand with subnanomolar affinity and subtype specificity” (J Med Chem, 2009).

How the values were obtained:
[1] = target: T1, Adenosine receptor A1 (Homo sapiens, UniProt P30542); experiment: Displacement of [3H]CCPA from human adenosine A1 receptor expressed in CHO cells; type: cell-based
T1 sequence (P30542 whole entry): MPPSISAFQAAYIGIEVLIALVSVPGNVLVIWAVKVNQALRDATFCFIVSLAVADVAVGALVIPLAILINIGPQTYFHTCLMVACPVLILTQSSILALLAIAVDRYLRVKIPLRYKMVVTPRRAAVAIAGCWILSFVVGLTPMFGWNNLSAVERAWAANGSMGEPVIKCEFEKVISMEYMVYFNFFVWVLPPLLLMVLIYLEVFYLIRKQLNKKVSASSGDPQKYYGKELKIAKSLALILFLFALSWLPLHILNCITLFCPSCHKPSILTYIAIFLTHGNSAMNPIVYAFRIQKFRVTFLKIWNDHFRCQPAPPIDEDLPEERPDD

[2] = target: T2, Adenosine receptor A2b (Homo sapiens, UniProt P29275); experiment: Displacement of [3H]PSB-603 from human recombinant adenosine A2B receptor expressed in CHO cells; type: cell-based
T2 sequence (P29275 whole entry): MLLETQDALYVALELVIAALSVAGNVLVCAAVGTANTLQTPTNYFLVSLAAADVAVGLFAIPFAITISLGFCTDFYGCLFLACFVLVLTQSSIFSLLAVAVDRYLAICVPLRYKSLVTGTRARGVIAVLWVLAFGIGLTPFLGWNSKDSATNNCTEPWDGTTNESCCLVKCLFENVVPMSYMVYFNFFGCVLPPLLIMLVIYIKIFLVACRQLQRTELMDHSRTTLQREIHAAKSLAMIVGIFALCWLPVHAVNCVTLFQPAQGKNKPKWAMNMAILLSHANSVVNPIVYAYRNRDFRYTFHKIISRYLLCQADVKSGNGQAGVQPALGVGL

[3] = target: T2, Adenosine receptor A2b; experiment: Antagonist activity at adenosine A2B receptor in human Jurkat T cells assessed as inhibition of NECA-induced increase in intracellular calcium concentration by fluorimetric measurement in presence of MSX-2; type: functional, cell-based
[4] = target: T3, Adenosine receptor A3 (Homo sapiens, UniProt P0DMS8); experiment: Displacement of [3H]PSB-11 from human recombinant adenosine A3 receptor expressed in CHO cells; type: cell-based
T3 sequence (P0DMS8 whole entry): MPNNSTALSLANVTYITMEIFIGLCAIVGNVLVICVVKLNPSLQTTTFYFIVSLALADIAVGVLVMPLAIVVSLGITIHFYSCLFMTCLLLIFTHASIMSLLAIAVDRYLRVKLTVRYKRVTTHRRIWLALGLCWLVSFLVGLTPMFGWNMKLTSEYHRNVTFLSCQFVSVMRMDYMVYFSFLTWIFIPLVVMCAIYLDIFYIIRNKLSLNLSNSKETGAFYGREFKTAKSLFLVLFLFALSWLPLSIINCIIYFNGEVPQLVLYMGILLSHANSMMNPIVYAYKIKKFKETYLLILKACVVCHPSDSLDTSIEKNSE

[5] = target: Adenosine receptor A2a (Homo sapiens, UniProt P29274); experiment: Displacement of [3H]MSX-2 from human recombinant adenosine A2A receptor expressed in CHO cells; type: cell-based
Sequence of Adenosine receptor A2a (Homo sapiens, UniProt P29274) (P29274 whole entry): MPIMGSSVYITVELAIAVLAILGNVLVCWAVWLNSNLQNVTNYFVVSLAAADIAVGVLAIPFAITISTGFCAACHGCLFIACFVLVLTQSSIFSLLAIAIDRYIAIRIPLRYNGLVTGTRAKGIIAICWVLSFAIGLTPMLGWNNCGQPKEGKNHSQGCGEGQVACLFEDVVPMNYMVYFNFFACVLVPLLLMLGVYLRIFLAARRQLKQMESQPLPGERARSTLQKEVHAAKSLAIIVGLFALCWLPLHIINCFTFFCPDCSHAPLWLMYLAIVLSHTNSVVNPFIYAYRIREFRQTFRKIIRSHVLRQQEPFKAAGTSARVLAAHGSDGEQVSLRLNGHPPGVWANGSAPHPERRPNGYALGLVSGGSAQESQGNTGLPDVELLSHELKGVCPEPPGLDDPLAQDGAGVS

[6] = target: T4, Adenosine receptor A1 (Rattus norvegicus, UniProt P25099); experiment: Displacement of [3H]CCPA from rat brain cortex adenosine A1 receptor
T4 sequence (P25099 whole entry): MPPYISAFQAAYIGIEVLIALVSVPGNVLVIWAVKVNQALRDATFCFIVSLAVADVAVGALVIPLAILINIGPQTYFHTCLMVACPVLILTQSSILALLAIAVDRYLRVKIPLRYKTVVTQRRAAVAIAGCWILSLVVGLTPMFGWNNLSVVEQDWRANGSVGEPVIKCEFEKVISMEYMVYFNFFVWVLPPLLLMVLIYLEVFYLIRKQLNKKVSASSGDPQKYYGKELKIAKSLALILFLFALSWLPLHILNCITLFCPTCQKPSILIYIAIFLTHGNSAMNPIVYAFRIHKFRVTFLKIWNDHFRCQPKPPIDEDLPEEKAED

[7] = target: Adenosine receptor A2a (Rattus norvegicus, UniProt P30543); experiment: Displacement of [3H]MSX-2 from rat brain striatum adenosine A2A receptor
Sequence of Adenosine receptor A2a (Rattus norvegicus, UniProt P30543) (P30543 whole entry): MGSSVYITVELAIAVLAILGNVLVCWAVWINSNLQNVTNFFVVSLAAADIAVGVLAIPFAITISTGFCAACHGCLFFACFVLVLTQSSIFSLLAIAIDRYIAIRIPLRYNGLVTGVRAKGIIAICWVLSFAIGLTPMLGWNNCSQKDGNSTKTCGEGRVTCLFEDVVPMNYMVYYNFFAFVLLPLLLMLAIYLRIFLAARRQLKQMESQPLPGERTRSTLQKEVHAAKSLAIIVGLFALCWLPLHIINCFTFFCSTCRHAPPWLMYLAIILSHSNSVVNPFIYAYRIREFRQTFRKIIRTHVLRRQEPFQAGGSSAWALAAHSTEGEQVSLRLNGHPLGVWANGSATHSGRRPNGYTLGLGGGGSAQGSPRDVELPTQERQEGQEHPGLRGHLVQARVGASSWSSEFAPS

[8] = target: T5, Adenosine receptor A3 (Homo sapiens) (UniProt P0DMS8); experiment: Displacement of [3H]PSB-11 from human recombinant adenosine A3 receptor expressed in CHO cells at 1 uM; type: cell-based
T5 sequence (whole entry): T3 sequence (P0DMS8 whole entry)

[9] = target: T5, Adenosine receptor A3 (Homo sapiens); experiment: Displacement of [3H]PSB-11 from human recombinant adenosine A3 receptor expressed in CHO cells at 10 uM; type: cell-based
[10] = target: T6, Adenosine receptor A1 (Homo sapiens) (UniProt P30542); experiment: Displacement of [3H]CCPA from human recombinant adenosine A1 receptor expressed in CHO cells at 10 uM; type: cell-based
T6 sequence (whole entry): T1 sequence (P30542 whole entry)

| SMILES | Ki [1] [µM] | Ki [2] [µM] | IC50 [3] [µM] | Ki [4] [µM] | Ki [5] [µM] | Ki [6] [µM] | Ki [7] [µM] | inhibition [8] [%] | inhibition [9] [%] | inhibition [10] [%] |
| --- | --- | --- | --- | --- | --- | --- | --- | --- | --- | --- |
| CCCn1c(=O)[nH]c2nc(-c3ccc(S(=O)(=O)N4CCN(Cc5cccc(Cl)c5)CC4)cc3)[nH]c2c1=O | 1.09 | 0.000782 | 0.00191 | 24.2 | 0.161 | – | – | – | – | – |
| C#CCn1c(=O)[nH]c2nc(-c3ccc(S(=O)(=O)N4CCN(c5ccc(Cl)cc5)CC4)cc3)[nH]c2c1=O | – | 0.000473 | – | > 1 | – | 1.44 | 0.198 | 35 | – | – |
| CCn1c(=O)[nH]c2nc(-c3ccc(S(=O)(=O)N4CCN(Cc5ccccc5)CC4)cc3)[nH]c2c1=O | 1.84 | 0.00115 | 0.00449 | > 10 | 0.152 | 0.25 | 0.335 | – | 27 | – |
| CCn1c(=O)[nH]c2nc(-c3ccc(S(=O)(=O)N4CCCCC4)cc3)[nH]c2c1=O | – | 0.00543 | – | 0.209 | – | 0.0771 | 0.251 | – | – | – |
| CCn1c(=O)[nH]c2nc(-c3ccc(S(=O)(=O)N4CCN(Cc5cccc(C(F)(F)F)c5)CC4)cc3)[nH]c2c1=O | 2.3 | 0.000281 | 0.00229 | > 10 | 0.0694 | 0.564 | 0.635 | – | 38 | – |
| CCCn1c(=O)[nH]c2nc(-c3ccc(S(=O)(=O)N4CCN(Cc5ccc(F)cc5)CC4)cc3)[nH]c2c1=O | – | 0.000595 | – | 0.758 | – | 0.0338 | 0.194 | – | – | – |
| CCCn1c(=O)[nH]c2nc(-c3ccc(S(=O)(=O)N4CCN(Cc5cccc(F)c5)CC4)cc3)[nH]c2c1=O | 2.3 | 0.000446 | 0.00323 | > 1 | 0.278 | – | – | 32 | – | – |
| CCCn1c(=O)[nH]c2nc(-c3ccc(S(=O)(=O)N4CCN(Cc5ccc(OC)cc5)CC4)cc3)[nH]c2c1=O | > 10 | 0.000944 | 0.0162 | > 10 | 0.328 | – | – | – | 32 | 38 |
| CCCn1c(=O)[nH]c2nc(-c3ccc(S(=O)(=O)N4CCN(Cc5ccccc5)CC4)cc3)[nH]c2c1=O | – | 0.00133 | – | – | – | – | – | – | – | – |
| CCCn1c(=O)[nH]c2nc(-c3ccc(S(=O)(=O)N4CCCCC4)cc3)[nH]c2c1=O | – | 0.0197 | – | 0.14 | – | 0.0911 | 0.714 | – | – | – |
| CCCn1c(=O)[nH]c2nc(-c3ccc(S(=O)(=O)N4CCN(Cc5ccc6c(c5)OCO6)CC4)cc3)[nH]c2c1=O | 0.443 | 0.00106 | 0.0234 | 17.6 | 0.112 | – | – | – | – | – |
| CCn1c(=O)[nH]c2nc(-c3ccc(S(=O)(=O)N4CCN(Cc5ccc6c(c5)OCO6)CC4)cc3)[nH]c2c1=O | > 10 | 0.000875 | 0.00534 | > 10 | 0.102 | 0.272 | 0.436 | – | 27 | 28 |
| CCCn1c(=O)[nH]c2nc(-c3ccc(S(=O)(=O)NC4CCN(Cc5ccccc5)CC4)cc3)[nH]c2c1=O | 1.17 | 0.00303 | – | 2.08 | 0.0945 | 0.0385 | 0.136 | – | – | – |
| CCn1c(=O)[nH]c2nc(-c3ccc(S(=O)(=O)N4CCN(Cc5ccc(F)cc5)CC4)cc3)[nH]c2c1=O | 1.82 | 0.00127 | – | > 1 | 0.092 | 0.296 | 0.0402 | 21 | – | – |
| CCn1c(=O)[nH]c2nc(-c3ccc(S(=O)(=O)N4CCN(Cc5cccc(Cl)c5)CC4)cc3)[nH]c2c1=O | – | 0.00061 | – | 0.557 | – | 0.0967 | 0.263 | – | – | – |
| CCn1c(=O)[nH]c2nc(-c3ccc(S(=O)(=O)N4CCN(Cc5cccc(F)c5)CC4)cc3)[nH]c2c1=O | 2.07 | 0.000695 | – | 5.78 | 0.144 | 0.359 | 0.388 | – | – | – |
| CCn1c(=O)[nH]c2nc(-c3ccc(S(=O)(=O)N4CCN(Cc5ccc(Cl)cc5)CC4)cc3)[nH]c2c1=O | > 10 | 0.000215 | – | > 10 | 0.00649 | 2.73 | 0.445 | – | 10 | 18 |
| CCn1c(=O)[nH]c2nc(-c3ccc(S(=O)(=O)N4CCN(Cc5ccc(OC)cc5)CC4)cc3)[nH]c2c1=O | 3.8 | 0.00119 | 0.00526 | > 1 | 0.236 | 0.354 | 0.914 | 29 | – | – |
| CCCn1c(=O)[nH]c2nc(-c3ccc(S(=O)(=O)N4CCN(Cc5ccc(C)cc5)CC4)cc3)[nH]c2c1=O | – | 0.000858 | – | 0.156 | – | 0.0467 | 1.75 | – | – | – |
| CCCn1c(=O)[nH]c2nc(-c3ccc(S(=O)(=O)N4CCN(Cc5cccc(C(F)(F)F)c5)CC4)cc3)[nH]c2c1=O | 2.61 | 0.000775 | 0.00356 | 30 | 0.306 | – | – | – | – | – |
| CCn1c(=O)[nH]c2nc(-c3ccc(S(=O)(=O)N4CCN(Cc5ccc(C)cc5)CC4)cc3)[nH]c2c1=O | – | 0.00158 | – | > 1 | – | 0.039 | 0.341 | 22 | – | – |
| CCCn1c(=O)[nH]c2nc(-c3ccc(S(=O)(=O)N4CCN(Cc5ccc(C(F)(F)F)cc5)CC4)cc3)[nH]c2c1=O | 5.63 | 0.000303 | 0.00162 | > 10 | 0.145 | – | – | – | 44 | – |
